# Results: article PMC9962964, “^68Ga-Labeled [Thz^14]Bombesin(7–14) Analogs: Promising GRPR-Targeting Agonist PET Tracers with Low Pancreas Uptake” (Molecules, 2023)
# Read-outs that look alike come from different tables or passages of the source.
# Legend:
# GRPR [1] = molecular target: T1, GRPR (Homo sapiens, UniProt P30550); assay: Fluorometric calcium release assay in PC-3 cells; type: cell-based; set-up: generated using GRPR-expressing PC-3 cells; endogenous in cells; host or cells: PC-3 cells; conditions: 50 nM ligand
# T1 sequence (P30550 whole entry): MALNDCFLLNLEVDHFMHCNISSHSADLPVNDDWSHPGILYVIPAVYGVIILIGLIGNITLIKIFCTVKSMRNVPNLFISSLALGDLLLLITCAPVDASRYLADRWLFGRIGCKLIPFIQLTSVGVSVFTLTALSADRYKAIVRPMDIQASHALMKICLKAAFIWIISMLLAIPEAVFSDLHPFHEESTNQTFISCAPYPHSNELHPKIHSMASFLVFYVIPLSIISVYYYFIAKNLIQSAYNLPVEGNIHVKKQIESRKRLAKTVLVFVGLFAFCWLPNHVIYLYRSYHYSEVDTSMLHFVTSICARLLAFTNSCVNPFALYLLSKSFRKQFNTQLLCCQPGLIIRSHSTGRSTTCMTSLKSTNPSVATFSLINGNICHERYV
# Protocol: Following previously published procedures, 5 × 10^4 PC-3 cells in 100 μL of growth media were seeded per well in a 96-well, clear bottom black plate 24 h before the assay. The loading buffer (100 μL/well), containing a calcium-sensitive dye (FLIPR Calcium 6 assay kit), was added to the 96-well plate. After incubation at 37 °C for 2 h, the plate was placed in a FlexStation 3 microplate reader (Molecular Devices). […] Agonistic/antagonistic properties were determined using the relative fluorescent unit (RFU = max–min).
# [2] = 15 min post-injection
# Protocol: PET/CT imaging, biodistribution, and in vivo stability studies were conducted on male NOD.Cg-Rag1^tm1Mom Il2rg^tm1Wjl/SzJ (NRG) mice, following previously published procedures. The experiments were conducted according to the guidelines established by the Canadian Council on Animal Care and approved by the Animal Ethics Committee of the University of British Columbia (protocol number A20-0113, approved on 30 September 2020). […] Mice were used for PET/CT imaging and biodistribution studies when the tumor grew to 5–8 mm in diameter over around 4 weeks.
# At 15 min post-injection, mice were sedated and euthanized, and urine and blood were collected. The plasma was extracted from whole blood by adding CH3CN (500 μL), vortex, centrifugation, and the separation of supernatant. The plasma and urine samples were analyzed via radio-HPLC using the conditions for quality control of these ^68Ga-labeled radioligands (Table S3).
# PC-3 tumor xenografts = assay: PET/CT imaging of PC-3 tumor xenografts; type: in vivo, NRG mice; conditions: 1 h post-injection
# Protocol: PET/CT imaging experiments were performed on a Siemens (Knoxville, TN) Inveon micro PET/CT scanner. The tumor-bearing mouse was injected with 3–5 MBq of ^68Ga-labeled tracer through a lateral caudal tail vein under anesthesia, followed by recovery and roaming freely in its cage during the uptake period. At 50 min post-injection, a 10 min CT scan was conducted first for the localization and attenuation correction after segmentation for reconstructing the PET images, followed by a 10 min static PET imaging acquisition.
# [3] = Ex vivo biodistribution in PC-3 tumor-bearing mice; set-up: species or system NRG mice; conditions: mouse, 1 h post-injection; for tissue to tissue ratio at 1 h: male, NRG (NOD.Cg-Rag1^tm1Mom Il2rg^tm1Wjl/SzJ), iv, total radioactivity; for tissue uptake at 1 h: intravenous
# Protocol: For biodistribution studies, the mice were injected with the radiotracer (2–4 MBq) via the tail vein as described above. For blocking, the mice were co-injected with 100 μg of [D-Phe^6,Leu-NHEt^13,des-Met^14]Bombesin(6–14). At 1 h post-injection, the mice were anesthetized through isoflurane inhalation and euthanized through CO2 inhalation. Blood was collected through a cardiac puncture, and organs/tissues of interest were collected, weighed, and counted using a Perkin Elmer (Waltham, MA, USA) Wizard2 2480 automatic gamma counter.
# [4] = pH 7.4
# Protocol: Briefly, aliquots (2 μL) of the ^68Ga-labeled peptides were added into a 15 mL falcon tube containing 3 mL of n-octanol and 3 mL of 0.1 mol/L DPBS (pH 7.4). The mixture was vortexed for 1 min and then centrifuged at 3000 rpm for 15 min. Samples of the n-octanol (1 mL) and buffer (1 mL) layers were collected and measured in a gamma counter. LogD7.4 was calculated using the following equation: LogD7.4 = log10 [(counts in the n-octanol phase)/(counts in the buffer phase)].
# GRPR [5] = molecular target: T1, GRPR; set-up: generated using GRPR-expressing PC-3 cells; endogenous in cells; method as in PMID 21552898, PMID 7809097; conditions: Schally group; cited from earlier work
# GRPR [6] = molecular target: T1, GRPR; assay: In vitro competition binding assay with [125I-Tyr4]Bombesin on PC-3 cells; set-up: generated using GRPR-expressing PC-3 cells; endogenous in cells; host or cells: PC-3 cells; conditions: displacement of [125I-Tyr4]Bombesin, n = 3
# Protocol: PC-3 cells were seeded in 24-well, poly-D-lysine plates at 2 × 10^5 cells/well 24–48 h prior to the assay. […] Then, the plates were incubated for about 60 min at 37 °C. […] Data were analyzed using nonlinear regression (one binding site model for competition assay) with GraphPad (San Diego, CA, USA) Prism 8.4.3 software.
molecule,measurement,setting,value
"Nc1ncnc2c1ncn2[C@@H]1O[C@H](COP(=O)(O)OP(=O)(O)OP(=O)(O)O)[C@@H](O)[C@H]1O [ATP, adenosine triphosphate]",Ca2+ efflux (RFU = max–min),GRPR [1],334 ± 39.0 RFUs
"CC(C)C[C@H](NC(=O)[C@H](Cc1c[nH]cn1)NC(=O)CNC(=O)[C@@H](NC(=O)[C@H](C)NC(=O)[C@H](Cc1c[nH]c2ccccc12)NC(=O)[C@H](CCC(N)=O)NC(=O)[C@@H](Cc1ccc2ccccc2c1)NC(=O)CN1CCC(NC(=O)CN2CCN(CC(=O)O)CCN(CC(=O)O)CCN(CC(=O)O)CC2)CC1)C(C)C)C(=O)N1CSC[C@H]1C(N)=O [[^68Ga]Ga-TacBOMB3, metal not drawn]",intact fraction in plasma,"[2]; mouse plasma, n = 3",27.3 ± 4.84%
same,intact tracer in urine,[2]; mouse urine,no intact
same,visualization of PC-3 tumor xenografts in PET images,PC-3 tumor xenografts,clearly visualized
same,excretion pathway,PC-3 tumor xenografts; PET images,primarily excreted via the renal pathway
same,tissue to tissue ratio at 1 h,"[3]; tumor and bone, n = 4, read-out: Tumor/bone uptake ratio",29.9 ± 8.5
same,tissue to tissue ratio at 1 h,"[3]; tumor and intestines, n = 4, read-out: Tumor/intestines uptake ratio",4.93 ± 0.84
same,tissue to tissue ratio at 1 h,"[3]; tumor and kidney, n = 4, read-out: Tumor/kidney uptake ratio",1.34 ± 0.58
same,tissue to tissue ratio at 1 h,"[3]; tumor and muscle, n = 4, read-out: Tumor/muscle uptake ratio",23.5 ± 9.61
same,tissue to tissue ratio at 1 h,"[3]; tumor and pancreas, n = 4, read-out: Tumor/pancreas uptake ratio",2.21 ± 0.4
same,tissue to tissue ratio at 1 h,"[3]; tumor and whole blood, n = 4, read-out: Tumor/blood uptake ratio",5.61 ± 2.33
same,tissue uptake at 1 h,"[3]; PC-3 tumor, n = 4, read-out: PC-3 tumor uptake",5.09 ± 0.54 %ID/g
same,tissue uptake at 1 h,"[3]; blood, n = 4, read-out: Blood uptake",1.06 ± 0.51 %ID/g
same,tissue uptake at 1 h,"[3]; brain, muscle, fat, bone, liver, stomach, heart, and spleen, read-out: Uptake values for the brain, muscle, fat, bone, liver, stomach, heart, and spleen",< 1 %ID/g
same,tissue uptake at 1 h,"[3]; fat, n = 4, read-out: Fat uptake",0.19 ± 0.18 %ID/g
same,tissue uptake at 1 h,"[3]; heart, n = 4, read-out: Heart uptake",0.35 ± 0.18 %ID/g
same,tissue uptake at 1 h,"[3]; intestines, n = 4, read-out: Intestines uptake",1.06 ± 0.26 %ID/g
same,tissue uptake at 1 h,"[3]; kidneys, n = 4, read-out: Kidneys uptake",4.61 ± 2.72 %ID/g
same,tissue uptake at 1 h,"[3]; liver, n = 4, read-out: Liver uptake",0.65 ± 0.19 %ID/g
same,tissue uptake at 1 h,"[3]; lungs, n = 4, read-out: Lungs uptake",1.63 ± 0.75 %ID/g
same,tissue uptake at 1 h,"[3]; muscle, n = 4, read-out: Muscle uptake",0.24 ± 0.12 %ID/g
same,tissue uptake at 1 h,"[3]; pancreas, n = 4, read-out: Pancreas uptake",2.41 ± 0.72 %ID/g
same,tissue uptake at 1 h,"[3]; spleen, n = 4, read-out: Spleen uptake",0.5 ± 0.32 %ID/g
same,tissue uptake at 1 h,"[3]; stomach, n = 4, read-out: Stomach uptake",0.82 ± 0.37 %ID/g
same,tissue uptake at 1 h,"[3]; testes, n = 4, read-out: Testes uptake",0.37 ± 0.06 %ID/g
same,logD,[4],-2.55 ± 0.03
D-2-Nal-[Leu^13ψThz^14]Bombesin(7–14) [RC-3965-II],binding affinity to GRPR,GRPR [5],picomolar binding affinity
D-Phe-[Leu^13ψThz^14]Bombesin(7–14) [RC-3950-II],binding affinity to GRPR,GRPR [5],picomolar binding affinity
D-Tpi-[Leu^13ψThz^14]Bombesin(7–14) [RC-3910-II],binding affinity to GRPR,GRPR [5],picomolar binding affinity
"Ga-TacBOMB2: nonradioactive Ga-complexed standard of TacBOMB2 (FQWAVGHLX; Ga-DOTA-Pip (4-amino-(1-carboxymethyl)piperidine) on the N-terminus; residue 1 is D-Phe; X9 = Thz (thiazoline/thiazolidine-4-carboxylic acid, named thiazoline in the text) replacing Met14, normal Leu1)",Ki,GRPR [6],7.62 ± 0.19 nM
"[D-Phe^6,Leu-NHEt^13,des-Met^14]Bombesin(6–14)",Ca2+ efflux (RFU = max–min),GRPR [1],25.3 ± 1.92 RFUs
bombesin,Ca2+ efflux (RFU = max–min),GRPR [1],754 ± 38.3 RFUs
